Results as given in patent US6541463B1, “Inhibitors of type 5 and type 3 17β-hydroxysteroid dehydrogenase and methods for their use” (Endorecherche, Inc., priority 1998, dated 2003).

Assays:
glucocorticoid receptor = target: T1, glucocorticoid receptor (Rattus norvegicus, UniProt P06536); assay: Glucocorticoid receptor assay: inhibition of [3H]-dexamethasone binding, liver cytosol; conditions: for inhibition at 1 µM: read-out: % Inhibition Glucocorticold Receptor E^−6; for inhibition at 0.01 µM: read-out: % Inhibition Glucocorticold Receptor E^−8
T1 construct: from tissue; host or cells: liver cytosol of male Sprague-Dawley rats
T1 sequence (P06536 1-795): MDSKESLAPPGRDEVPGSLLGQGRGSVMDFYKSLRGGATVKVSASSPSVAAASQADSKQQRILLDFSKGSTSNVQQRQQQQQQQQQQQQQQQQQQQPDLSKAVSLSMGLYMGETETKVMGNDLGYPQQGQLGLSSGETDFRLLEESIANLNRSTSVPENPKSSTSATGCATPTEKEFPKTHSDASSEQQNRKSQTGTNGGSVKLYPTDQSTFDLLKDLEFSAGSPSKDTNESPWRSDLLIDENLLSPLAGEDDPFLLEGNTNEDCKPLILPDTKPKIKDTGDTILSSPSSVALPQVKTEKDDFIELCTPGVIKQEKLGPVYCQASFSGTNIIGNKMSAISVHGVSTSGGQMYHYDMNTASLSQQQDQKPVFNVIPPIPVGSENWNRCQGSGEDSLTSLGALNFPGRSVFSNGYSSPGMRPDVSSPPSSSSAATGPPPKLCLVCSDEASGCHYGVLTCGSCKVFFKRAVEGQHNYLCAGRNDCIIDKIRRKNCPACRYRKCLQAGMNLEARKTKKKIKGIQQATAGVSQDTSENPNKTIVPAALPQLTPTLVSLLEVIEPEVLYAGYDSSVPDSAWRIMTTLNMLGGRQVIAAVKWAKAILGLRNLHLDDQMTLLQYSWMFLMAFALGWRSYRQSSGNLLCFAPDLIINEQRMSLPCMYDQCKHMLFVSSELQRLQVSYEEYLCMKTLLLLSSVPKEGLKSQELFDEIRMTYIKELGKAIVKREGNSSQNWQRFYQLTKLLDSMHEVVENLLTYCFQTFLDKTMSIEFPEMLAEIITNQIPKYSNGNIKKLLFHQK
Experimental: The manner in which the percentage of inhibition is determined is described in “Other Tests; F-Glucocorticoid Receptor Assay”.
[6,7-^3H(N)]-Dexamethasone (39 Ci/mmol) was purchased from New England Nuclear (Lachine, Québec, Canada) while unlabeled dexametasone was obtained from Steraloids (Wilton, N.H.). All other chemicals were of analytical grade.
Stock solutions of the unlabeled steroids were kept at 4° C. in ethanol. The desired steroid solutions were then prepared by appropriate dilution in buffer B (10 mM Tris-HCl, 1.5 mM EDTA, 10 mM α-monothioglycerol, pH 7.4) containing 30% ethanol.
Male Sprague-Dawley rats weighing 200-300 g were obtained from Charles-River Inc. (St-Constant, Québec, Canada). The rats were killed by cervical dislocation and the liver were rapidly removed, dissected free from adhering tissue and frozen on dry-ice. Tissues were kept at −80° C. until use.
All procedures were performed at 4° C. Tissues were eminced and homogenized in 10 vol (w/v) of buffer A (25 mM Tris-HCl, 1.5 mM EDTA, 10 mM α-monothioglycerol, 10% glycerol, 10 mM sodium molybdate, pH 7.4) using a Polytron PT-10 homogenizer (Brinkmann Instruments, Canada) at a setting of 5 for two periods of 10 sec, with intervals of 10 sec for cooling. The homogenate was then centrifuged at 105,000×g for 90 min. The supernatant was used immediately for assay.
Glucocorticoid binding was measured using the dextran-coated charcoal adsorption technique. Incubations were performed at 0-4° C. for 16-18 h using 100 μl of cytosol, 100 μl of [^3H]-Dexamethasone (5 nM final) and 100 μl of unlabeled compounds at the indicated concentrations. Each concentration was done in triplicate. Assay was ended with 300 μl of DCC (2.5% Norit A and 0.25% Dextran T-70 in Buffer B). After 10 min of incubation, tubes were centrifuged at 2,000×g for 10 min. and decanted in vials with 6 ml of BCS liquid scintillation (New England Nuclear, Dupont). The radioactivity was measured in a Beckman counter at a counting efficiency of 35%.

[1] = tested on: Shionogi mouse mammary carcinoma cells; assay: Antiandrogenic activity: inhibition of DHT-induced proliferation of Shionogi cells; type: cell-based; conditions: for IC50: bracketed values, read-out: Antiandrogenic Activity Shionogi, DHT [IC50 (nM)]
How it was run: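 Readout was direct Coulter counting of Shionogi mouse mammary tumour cells after 10–12 days' culture with increasing concentrations of agents and DHT, with medium refreshed every 3–4 days. Medium used dextran-coated charcoal-treated serum. Cells were plated at 20 000/well in triplicate, and ED50 came from least-square regression.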

[2] = Table 4′, DHT-induced proliferation, E^−6 (10^−6 M)
[3] = Table 4′, DHT-induced proliferation, E^−7

Compound | inhibition at 1 µM (glucocorticoid receptor; Table 4′, E^−6) | inhibition at 0.01 µM (glucocorticoid receptor; Table 4′, E^−8) | Antiandrogenic Activity Shionogi, DHT E^−6 [1, 2] | Antiandrogenic Activity Shionogi, DHT E^−7 [1, 3] | also measured
CC(=O)[C@@]1(OC(=O)CCCCF)CCC2C3C=C(C)C4=CC(=O)CC[C@]4(C)C3CC[C@@]21C (stereo partly shown) [EM-1195-CS] | – | – | – | – | % Inhibition Glucocorticoid Receptor (glucocorticoid receptor; E^−6): 90%; % Inhibition Glucocorticoid Receptor (glucocorticoid receptor; E^−8): 3%; Antiandrogenic Activity Shionogi, DHT ([1]; E^−6): −110; Antiandrogenic Activity Shionogi, DHT ([1]; E^−7): −105
CC(C)C[C@@H]1CC2C3C=CC4=CC(=O)CC[C@]4(C)C3CC[C@]2(C)C1=O (stereo partly shown) [EM-1273-CS] | – | – | – | – | % Inhibition Glucocorticoid Receptor E^−6 (glucocorticoid receptor; E^−6): 1%; % Inhibition Glucocorticoid Receptor E^−8 (glucocorticoid receptor; E^−8): 0%; Antiandrogenic Activity Shionogi, DHT E^−6 ([1]; with DHT, E^−6): −43; Antiandrogenic Activity Shionogi, DHT E^−7 ([1]; with DHT, E^−7): 9
COc1ccc(CC(=O)O[C@]2(C(C)=O)CCC3C4C=C(C)C5=CC(=O)C=C[C@]5(C)C4CC[C@@]32C)cc1 (stereo partly shown) [EM-1291] | – | – | – | – | % Inhibition Glucocorticoid Receptor (glucocorticoid receptor; E^−6): 69%; % Inhibition Glucocorticoid Receptor (glucocorticoid receptor; E^−8): 1%; Antiandrogenic Activity Shionogi, DHT ([1]; E^−6): −48; Antiandrogenic Activity Shionogi, DHT ([1]; E^−7): −13
C[C@]12CCC(=O)C=C1C=C[C@@H]1[C@@H]2CC[C@]2(C)C(=O)C3(CC4CC4C3)C[C@@H]12 (stereo partly shown) [EM-1299, 4,6-Androstadien-3,17-dione-16-spirobicyclo[3′.1′.0′]-hexane] | – | – | – | – | % Inhibition Glucocorticoid Receptor E^−6 (glucocorticoid receptor; E^−6): 0%; % Inhibition Glucocorticoid Receptor E^−8 (glucocorticoid receptor; E^−8): 0%; Antiandrogenic Activity Shionogi, DHT E^−6 ([1]; with DHT, E^−6): −27; Antiandrogenic Activity Shionogi, DHT E^−7 ([1]; with DHT, E^−7): 0
CCS(=O)(=O)Oc1ccc2c(c1)CCC1C2CCC2(C)C1CCC21CCC(C)(C)C(=O)O1 (stereo not shown) [EM-1364-CS] | 3% | 0% | −59% | −11% | –
CC1(C)CCC2(CCC3C4CCc5cc(OS(C)(=O)=O)ccc5C4CCC32C)OC1=O (stereo not shown) [EM-1365-CS] | 5% | 0% | −53% | −17% | –
COCCOc1ccc2c(c1)CCC1C2CCC2(C)C1CCC21CCC(C)(C)C(=O)O1 [EM-1368-CS, 3-Methoxyethoxy-1,3,5(10)-estratrien-17(R)-spiro-2′-(5′,5′-dimethyl-6′-oxo)-tetrahydropyran] | 3% | 3% | −44% | 0% | –
CCOc1ccc2c(c1)CCC1C2CC[C@@]2(C)C1CC[C@@]21CCC(C)(C)C(=O)O1 (stereo partly drawn) [EM-1369, 3-Ethoxy-1,3,5(10)-estratrien-17(R)-spiro-2′-(5′,5′-dimethyl-6′-oxo)-tetrahydropyran] | 2% | 1% | −24% | 0% | –
COc1ccc2c(c1)CCC1C2CCC2(C)C1CCC21CCC(C)(C)C(=O)O1 (stereo not shown) [EM-1370] | 0% | 3% | −28% | 0% | –
COCCOc1cc2c(cc1Cl)C1CCC3(C)C(CCC34CCC(C)(C)C(=O)O4)C1CC2 (stereo not shown) [EM-1371-CS] | 0% | 1% | −76% | 0% | –
CC1(C)CC[C@@]2(CC[C@H]3[C@@H]4CCc5c(cc(Br)c(O)c5Br)[C@H]4CC[C@@]32C)OC1=O [EM-1382-CS] | – | – | 0% | 0% | % Inhibition Glucocorticold Receptor E^−6 (glucocorticoid receptor; Table 4′, E^−6): 4%; % Inhibition Glucocorticold Receptor E^−8 (glucocorticoid receptor; Table 4′, E^−8): 2%
COc1c(Br)cc2c(c1Br)CCC1C2CCC2(C)C1CCC21CCC(C)(C)C(=O)O1 (stereo not shown) [EM-1385-CS] | 5% | 0% | −61% | 0% | –
COc1ccc2c(c1)C(=O)CC1C3CCC4(CCC(C)(C)C(=O)O4)C3(C)CCC21O (stereo not shown) [EM-1386] | 0% | 3% | −27% | 0% | –
CN(C)CCOc1ccc2c(c1)CCC1C2CCC2(C)C1CCC21CCC(C)(C)C(=O)O1 (stereo not shown) [EM-1389-CS] | 3% | 0% | −103% | −94% | –
CC1(C)CCC2(CCC3C4CCc5cc(OCCN6CCCCC6)ccc5C4CCC32C)OC1=O [EM-1390-CS, 3-(N-piperidyl-ethyl)-1,3,5(10)-estratrien-17(R)-spiro-2′-(5′,5′-dimethyl-6′-oxo)-tetrahydropyran] | 0% | 2% | −119% | −36% | –
CC1(C)CCC2(CCC3C4CCc5c(cc(Cl)c(O)c5Cl)C4CCC32C)OC1=O (stereo not shown) [EM-1391-CS] | 2% | 0% | −19% | 0% | –
CC1(C)CCC2(CCC3C4CCc5c(cc(Cl)c(OS(C)(=O)=O)c5Cl)C4CCC32C)OC1=O (stereo not shown) [EM-1392-CS] | 8% | 0% | −75% | 0% | –
COc1ccc2c(c1)C(=O)CC1C2CC[C@@]2(C)C1CC[C@@]21CCC(C)(C)C(=O)O1 (stereo partly shown) [EM-1394] | 2% | 3% | −23% | 0% | –
COCCOc1cc2c(cc1C#N)C1CC[C@@]3(C)C(CC[C@@]34CCC(C)(C)C(=O)O4)C1CC2 (stereo partly shown) [EM-1396] | 1% | 0% | −29% | −16% | –
CC1(C)CC[C@@]2(CCC3C4CCc5cc(C(=O)O)ccc5C4CC[C@@]32C)OC1=O (stereo partly drawn) [EM-1401, 3-Carboxy-1,3,5(10)-estratrien-17(R)-spiro-2′-(5′,5′-dimethyl-6′-oxo)tetrahydropyran] | 2% | 4% | – | – | IC50 ([1]; Mus musculus, Table 4′): > 1000 nM
COCCOc1cc2c(cc1C(=O)OC)C1CC[C@@]3(C)C(CC[C@@]34CCC(C)(C)C(=O)O4)C1CC2 (stereo partly drawn) [EM-1402-CS, 2-Carbomethoxy-3-(2″-methoxyethyloxy)-1,3,5(10)-estratrien 17(R)-spiro-2′-(5′,5′-dimethyl-6′-oxo)tetrahydropyran] | 7% | 4% | −87% | −13% | –
CN(C)C(=O)c1ccc2c(c1)CCC1C2CCC2(C)C1CCC21CCC(C)(C)C(=O)O1 (stereo not shown) [EM-1403] | 0% | 0% | −54% | 0% | inhibition at 1 µM ([1]; Mus musculus, 10^−6 M inhibitor, negative number = stimulation reduced, read-out: percentage of inhibition of DHT-induced proliferation of Shionogi cells): 54%
CC1(C)CC[C@@]2(CCC3C4CCc5cc(C(N)=O)ccc5C4CCC32C)OC1=O (stereo partly shown) [EM-1404] | 0% | 0% | – | – | IC50 ([1]; Mus musculus, Table 4′): ~1000 nM
